US10907212B2, “Inhibitors of cell adhesion” (Regents of the University of Minnesota, priority 2016, dated 2021)
Where no end group is shown, it is not given here.

Legend:
[1] = test system: nectin 4 protein on NIH:OVCAR-5 cells; experiment: Effect of peptides on anti-Nectin-4 antibody binding to cells as determined by flow cytometry; assay type: cell-based, human; conditions: for IgG MFI: IgG control primary antibody; for nectin-4 antibody binding compared to untreated control cells (in words): flow cytometry; for Flow binding: summary table, Nectin-4 antibody binding relative to control = 100
Description: Confluent monolayers of cells were detached from 75 cm^2 tissue culture flasks using Accutase cell dissociation buffer (Innovative Cell Technologies, San Diego, Calif.), washed, and labeled with mouse IgG or mAbs against Nectin-4 or Nectin-1 (2.5 μg/10^6 cells) in Flow Buffer [phosphate buffered saline (PBS) containing 2.5% newborn calf serum and 0.02% sodium azide] for 30 min at 4° C.. Cells were washed and incubated with goat anti-mouse IgG F(ab′)2 (Jackson ImmunoResearch, West Grove, Pa.), then washed again and incubated with streptavidin-allophycocyanin conjugate (Jackson ImmunoResearch, West Grove, Pa.) for 30 min each. Cells were washed and fixed in Flow Buffer containing 1% formaldehyde and analyzed in the University of Minnesota Flow Cytometry Resource with a BD Accuri™ C6 flow cytometer (BD Biosciences, San Jose, Calif.) using the Accuri™ software.
Briefly, NIH:OVCAR-5 cells that natively express a moderate amount of nectin 4 protein were incubated for 30 minutes in 150 μg/mL of soluble peptide in DMSO. After incubation, the cells were washed, and then triple antibody stained using mouse anti-nectin 4 (or IgG control) primary antibody, biotinylated goat anti-mouse secondary antibody, and streptavidin APC tertiary antibody. Finally, utilizing the University of Minnesota flow core's Accuri C6 flow cytometer, the relative antibody binding affinity for control and peptide-treated samples was quantitated and compared. Data was collected for each of the 57 peptides generated.

[2] = test system: ovarian cancer cell aggregation and spheroid formation; experiment: Spheroid assay for peptides (visual scale +1 to +5); assay type: cell-based, human; conditions: visual scale of +1 to +5
Description: Spheroids were formed from the NIH:OVCAR5 cell lines described above using the liquid overlay method. One milliliter of a single cell suspension was seeded at a concentration of 50,000 cells/ml in OptiMEM® media, into 24-well tissue culture plates coated with 0.5% Seakem agarose (in complete RPMI-1640). Plates were incubated at 37° C. in a humidified incubator with 5% CO2. At various time points up to 5 days, the plates were removed from the incubator and the spheroids were photographed with a Nikon CoolPix digital camera mounted on an Olympus CK2 inverted microscope with a 4× objective. The size of the spheroids was determined using the measure tool in Adobe Photoshop. The largest spheroids were quantified (20-90 spheroids/well), in a minimum of 8 wells, for a total of >300 spheroids per cell type.
The clinical relevance is that by blocking the formation of spheroids, the cells will be more sensitive to chemotherapy (which targets the single cells that proliferate more rapidly than spheroids).
The spheroid assay for peptides 1-30 were scored using a visual scale of +1 to +5. The controls were scored at +2 (24 hrs) and +4 (48 hrs). […] It may be harder to visually assess the size at 24 hours, since the spheroids are relatively small, but and perhaps some of the peptides are affecting cell division, and that is why the spheroids are smaller than the controls at 48 hours, but not 24 hrs (this can be easily assayed with an MTT assay).

[3] = Run One, 150 μg/mL peptide, 30 minutes, Control 1 = 15,015
[4] = Run One, 150 μg/mL peptide, 30 minutes, Control 1 = 1,670
[5] = Run One, antibody binding relative to Control 1 = 100.00
[6] = Run Three, 150 μg/mL peptide, 30 minutes, Control 3 = 13,070.20
[7] = Run Three, antibody binding relative to Control 3 = 100.00
[8] = Run Five, 150 μg/mL peptide, 30 minutes, Control 5 = 17,768.90
[9] = Run Five, Control 5 = 2.142155332
[10] = Run Five, antibody binding relative to Control 5 = 100

Row | Substance | N4 MFI [1, 6] | N4 MFI/IgG MFI ([1]; Run Three, Control 3 = 9.83) | IgG MFI ([1]; Run Three, Control 3 = 1330) | nectin-4 antibody binding, percent of control [1, 7] | nectin-4 antibody binding compared to untreated control cells (in words) ([1]; 150 μg/mL peptide) | N4 MFI [1, 8] | N4 MFI/IgG MFI [1, 9] | IgG MFI ([1]; Run Five, Control 5 = 8,294.87) | nectin-4 antibody binding, percent of control [1, 10] | also measured
1 | GQGLTLAASCTAEG-NH2 (listed as Homo sapiens) [Peptide 12] |  |  |  |  |  |  |  |  |  | N4 MFI [1, 3]: 11,052; IgG MFI [1, 4]: 2,827; N4 MFI/IgG MFI ([1]; Run One, Control 1 = 8.99): 3.91; nectin-4 antibody binding, percent of control [1, 5]: 61.63
2 | LSRLELEDEGVYIC-NH2 (listed as Homo sapiens) [Peptide 37] | 46,393.69 | 11.38 | 4078 | 360.43 |  |  |  |  |  | 
3 | NGKPPSVVSWETRL-NH2 (listed as Homo sapiens) [Peptide 42] |  |  |  |  |  |  |  |  |  | N4 MFI ([1]; Run Four, 150 μg/mL peptide, 30 minutes, Control 4 = 9,631.58): 9,416.50; N4 MFI/IgG MFI ([1]; Run Four, Control 4 = 9.387504873): 7.497; IgG MFI ([1]; Run Four, Control 4 = 1,026): 1256; nectin-4 antibody binding, percent of control ([1]; Run Four, antibody binding relative to Control 4 = 100): 94.83
4 | NVAIYNPSMGVSVL-NH2 (listed as Homo sapiens) [Peptide 34] | 14,542.93 | 9.77 | 1489 | 111.19 | increased nectin-4 antibody binding |  |  |  |  | Flow binding [1]: 112%
5 | NYSLAGTYICEATN-NH2 (listed as Homo sapiens) [Peptide 53] |  |  |  |  |  | 40,909.47 | 1.37 | 29,864.47 | 116.6 | 
6 | PAGELETSDVVTVV-NH2 (listed as Homo sapiens) [Peptide 1] |  |  |  |  | reduction in nectin-4 antibody binding |  |  |  |  | N4 MFI [1, 3]: 2,085; IgG MFI [1, 4]: 1,529; N4 MFI/IgG MFI ([1]; Run One, Control 1 = 8.99): 1.36; nectin-4 antibody binding, percent of control [1, 5]: 4.17
7 | QRITHILHVSFLAE-NH2 (listed as Homo sapiens) [Peptide 18] |  |  |  |  |  |  |  |  |  | Spheroid-24 ([2]; 24 hrs, Control = 2): 3; Spheroid-48 ([2]; 48 hrs, Control = 4): 5
8 | TNPIGTRSGQVEVN-NH2 (listed as Homo sapiens) [Peptide 54] |  |  |  |  |  | 19,706.27 | 2.253 | 8,747.26 | 115.7 | 
9 | TNWIEGTQAVLRAKKGQ-NH2 (listed as Homo sapiens) [Peptide 40] | 10,121.20 | 7.11 | 1423 | 74.09 |  |  |  |  |  | 
10 | TWQKSTNGSKQNV-NH2 (listed as Homo sapiens) [Peptide 33] | 10,425.01 | 8.31 | 1255 | 78.11 |  |  |  |  |  | 
11 | VLAPYRERVEFLRP-NH2 (listed as Homo sapiens) [Peptide 35] | 15,767.33 | 8.59 | 1835 | 118.67 | increased nectin-4 antibody binding |  |  |  |  | Flow binding [1]: 119%
12 | VNITEFPYTPSPPEHGRRA-NH2 (listed as Homo sapiens) [Peptide 55] |  |  |  |  |  | 19,498.24 | 2.29 | 8,512.75 | 116 | 
13 | WTTLNGSLPKGVEA-NH2 (listed as Homo sapiens) [Peptide 51] |  |  |  |  | reduction in nectin-4 antibody binding | 14,202.55 | 1.539 | 9,230.44 | 52.48 | Flow binding [1]: 53%
